Experimental data reported in patent publication US20220227776A1, “PRODRUGS OF 1'-S[…]-NUCLEOSIDE ANALOGUES FOR ANTIVIRAL TREATMENT” (Copycat Sciences Inc., priority 2020, published 2022).

Experiments:
[1] = Human plasma stability at 37° C.
[2] = Phosphate buffer stability at 25° C.; format: physicochemical
Text: (§1) As summarized in Table 8, these studies indicate that CAT002 is an efficient prodrug of GS-441524 that is well-suited for clinical development as an oral agent.

[3] = Human intestinal S9 stability at 37° C.; format: in vitro ADME
Text: Across all species tested, CAT002 was efficiently metabolized to the core nucleoside GS-441524 when administered orally, indicating efficient first-pass intestinal or hepatic metabolism. Rapid hydrolysis of CAT002 in human intestinal homogenates indicated intestinal metabolism as the primary mechanism of CAT002 hydrolysis.

[4] = Thermodynamic solubility at pH 7.4; format: physicochemical
Text: as §1

Caco-2 = Caco-2 permeability AB/BA; format: in vitro ADME; conditions: for Caco-2 permeability AB: AB direction; for Caco-2 permeability BA: BA direction; for Caco-2 Efflux: BA/AB
[5] = Plasma pharmacokinetics of GS-441524 following oral administration of CAT002 in cynomolgus macaques; format: in vivo
Method: CAT002 (7.8 mg/kg; 4.9 mg/kg-equivalent of the parent nucleoside, GS-441524) was formulated in saline (1.60 mg/mL) and orally administered to fasted male cynomolgus macaques (N=2). GS-441524 is in turn intracellularly converted to the bioactive ATP analogue, GS-443902. GS-443902 is known to have an antiviral activity and affinity for viral polymerase. See Gordon et al. JBC 2020; 295(20): 6785-6797; Tchesnokov et al. JBC 2020: 295(47):16156-16165; Yin et al. Science 2020: 368(6498): 1499-1504. Whole blood samples were collected at the following timepoints (hours) in K2EDTA collection tubes: 0.25, 0.50, 1.00, 2.00, 4.00, 8.00, 24.0, 48.0.
(§2) Sample preparation. Plasma was isolated by protein precipitation in a 96-well plate at 0° C. An aliquot of 20 μL unknown sample, calibration standard, quality control and dilution quality control (if have), single blank, and double blank sample was added to the 96-well plate respectively. Each sample (except the double blank) was quenched with 100 μL of IS1 respectively (double blank sample was quenched with 100 μL of MeOH), and then the mixture was vortex-mixed for 10 min at 800 rpm and centrifuged for 15 min at 3220×g, 4° C. An aliquot of 60 μL supernatant was transferred to another clean 96-well plate and centrifuged for 5 min at 3220×g, 4° C., then the supernatant was directly injected for LC-MS/MS analysis.
LC-MS/MS analysis. Metabolites of interest (CAT002, GS-441524) were then quantified by LC-MS/MS (SCIEX LC-MS/MS-BZ Triple Quad 6500+, ACQUITY UPLC HSS T3 1.8 μm 2.1×50 mm Column; mobile phase A: 0.1% formic acid in water, mobile phase B: 0.1% formic acid in acetonitrile; flow rate: 0.65 mL/min.). Gradient conditions were as follows: 2% B over 0.2 minutes, 2-25% B from 0.2-1.2 minutes, 25-95% from 1.2-1.4 minutes, 95% from 1.4-2.1 minutes, 95-2% from 2.1-2.11 minutes, 2% from 2.11-2.2 minutes). The lower limit of quantification for 1.00 ng/mL for CAT002 and 2.00 ng/mL for GS-441524. Data for both CAT002 and GS-441524 were fitted and analyzed by Phoenix NonWinLin 6.3 using noncompartmental model 200 (extravascular output). […]

[6] = Human hepatic microsomal stability (+/- mixed cofactors); format: in vitro ADME
[7] = Plasma pharmacokinetics of GS-441524 following oral administration of CAT002 in humans; format: in vivo
Method: CAT002 (HCl salt) was administered as excipient-less gelatin capsules to healthy participants (N=2) in the fasted state. Participant 1 (Subject 1) is a healthy person and Participant 2 (Subject 2) is a healthy person. Both Participants 1 and 2 were administered 5.4 mg/kg CAT002 (3 mg/kg-equivalent GS-441524). Whole blood samples were collected at the following timepoints (hours) in K2EDTA collection tubes: 0.5, 1, 3.6, 8, 24, 43. Plasma was isolated by centrifugation and samples were stored at −78° C. before analysis.
In-life PK of orally administered GS-441524. GS-441524 was administered as an excipient-less gelatin capsule (200 mg) to Participant 1 in the fasted state. Whole blood samples were collected at the following timepoints (hours) in K2EDTA collection tubes: 0.5, 1, 3.6, 8, 24, 43. Plasma was isolated by centrifugation and samples were stored at −78° C. before analysis. Sample preparation. An aliquot of 20 μL unknown sample, calibration standard, quality control and dilution quality control (if have), single blank, and double blank sample was added to the 96-well plate respectively. Each sample (except the double blank) was quenched with 100 μL of IS1 respectively (double blank sample was quenched with 100 μL of MeOH), and then the mixture was vortex-mixed for 10 min at 800 rpm and centrifuged for 15 min at 3220×g, 4° C. An aliquot of 60 μL supernatant was transferred to another clean 96-well plate and centrifuged for 5 min at 3220×g, 4° C., then the supernatant was directly injected for LC-MS/MS analysis.
LC-MS/MS analysis. Metabolites of interest (GS-441524) were then quantified by LC-MS/MS (SCIEX LC-MS/MS-BZ Triple Quad 6500+, ACQUITY UPLC HSS T3 1.8 μm 2.1×50 mm Column; mobile phase A: 0.1% formic acid in water, mobile phase B: 0.1% formic acid in acetonitrile; flow rate: 0.65 mL/min.). […] The lower limit of quantification was 1.00 ng/mL. Data for both CAT002 and GS-441524 were fitted and analyzed by Phoenix NonWinLin 6.3 using noncompartmental model 200 (extravascular output) (FIG. 3).

[8] = Plasma pharmacokinetics of GS-441524 following oral administration of CAT002 in Sprague-Dawley rats; format: in vivo
Method: CAT002 (16 mg/kg; 10.8 mg/kg-equivalent of the parent nucleoside, GS-441524) was formulated in saline (1.60 mg/mL) and orally administered to fasted male rats (N=2). Whole blood samples were collected at the following timepoints (hours) in K2EDTA collection tubes: 0.25, 0.50, 1.00, 2.00, 4.00, 8.00, 24.0, 48.0.
as §2
LC-MS/MS analysis. Metabolites of interest (CAT002, GS-441524) were then quantified by LC-MS/MS (SCIEX LC-MS/MS-BZ Triple Quad 6500+, ACQUITY UPLC HSS T3 1.8 μm 2.1×50 mm Column; mobile phase A: 0.1% formic acid in water, mobile phase B: 0.1% formic acid in acetonitrile; flow rate: 0.65 mL/min.). Gradient conditions were as follows: 2% B over 0.2 minutes, 2-25% B from 0.2-1.2 minutes, 25-95% from 1.2-1.4 minutes, 95% from 1.4-2.1 minutes, 95-2% from 2.1-2.11 minutes, 2% from 2.11-2.2 minutes). The lower limit of quantification for both CAT002 and GS-441524 was 2.00 ng/mL. Data for both CAT002 and GS-441524 were fitted and analyzed by Phoenix NonWinLin 6.3 using noncompartmental model 200 (extravascular output). Data on directly administered oral GS-441524 were obtained from the NCATS OpenData Portal and are plotted alongside data generated from CAT002 for comparison (FIG. 1).

[9] = oral CAT002, analyte GS-441524 in plasma
[10] = oral CAT002 in aqueous solution

N#C[C@@]1(c2ccc3c(N)ncnn23)O[C@H](CO)[C@@H](O)[C@H]1O [GS-441524, reference compound]
Human plasma stability at 37° C. ([1]; plasma type not specified): Stable
Phosphate buffer stability at 25° C., T1/2 ([2]; pH not specified): Stable
Human intestinal S9 stability at 37° C. [3]: Stable
Thermodynamic solubility at pH 7.4 [4]: 0.04 mg/mL
Caco-2 permeability AB (Caco-2): 0.17 cm/sec•10^6
Caco-2 permeability BA (Caco-2): 2.1 cm/sec•10^6
Caco-2 Efflux (Caco-2): 12.4

((2R,3S,4R,5R)-5-(4-aminopyrrolo[2,1-f][1,2,4]triazin-7-yl)-5-cyano-3,4-dihydroxytetrahydrofuran-2-yl)methyl D-valinate [CAT002]
plasma levels of CAT002 (for determining its half-life) ([5]; oral CAT002, analyte CAT002): either too low or below the limit of quantification
half-life of GS-441524 derived from CAT002 [5, 9]: 8 h
plasma exposure to GS-441524 with respect to Cmax, fold higher than previously reported for equivalent doses of oral GS-441524 in organic solution [5, 10]: approximately 6 fold
Human plasma stability at 37° C. ([1]; EDTA plasma): EDTA plasma: 195 minutes
Human plasma stability at 37° C. ([1]; Heparin plasma): Heparin plasma: >289.1 minutes
Phosphate buffer stability at 25° C., T1/2 ([2]; pH 3.0): pH 3.0: Stable
Phosphate buffer stability at 25° C., T1/2 ([2]; pH 7.4): pH 7.4: 30 hours
Human intestinal S9 stability at 37° C. [3]: 19.5 min
aqueous solubility at neutral pH, fold greater than GS-441524 ([4]; neutral pH, relative to GS-441524): 87 fold
Thermodynamic solubility at pH 7.4 [4]: 3.4 mg/mL
Human hepatic microsomal stability, T1/2 [6]: 67 minutes (− cofactors)
plasma levels of CAT002 (for determining its half-life) ([7]; oral CAT002, analyte CAT002): either too low or below the limit of quantification
half-life of GS-441524 derived from CAT002 [7, 9]: 7.3 h
plasma exposure of the core nucleoside with respect to Cmax, fold higher than oral solution of GS-441524 at an equivalent per-molar dose ([7]; oral CAT002 powder-in-capsule formulation): approximately 4 fold
Caco-2 permeability AB (Caco-2): 0.55 cm/sec•10^6
Caco-2 permeability BA (Caco-2): 0.45 cm/sec•10^6
Caco-2 Efflux (Caco-2): 0.8
plasma levels of CAT002 (for determining its half-life) ([8]; oral CAT002, analyte CAT002): either too low or below the limit of quantification
half-life of GS-441524 derived from CAT002 [8, 9]: 3 h
plasma exposure to GS-441524 with respect to Cmax, fold higher than previously reported for equivalent doses of oral GS-441524 in organic solution [8, 10]: approximately 6 fold
